According to the Kinase Knowledgebase extract (Sharma et al. 2016):

What follows are molecules tested against PIK3CA (human) (UniProt P42336) (assay: Assessment of PIK3CA Kinase Activity).
Chain of PIK3CA (human) (P42336 whole entry, looked up): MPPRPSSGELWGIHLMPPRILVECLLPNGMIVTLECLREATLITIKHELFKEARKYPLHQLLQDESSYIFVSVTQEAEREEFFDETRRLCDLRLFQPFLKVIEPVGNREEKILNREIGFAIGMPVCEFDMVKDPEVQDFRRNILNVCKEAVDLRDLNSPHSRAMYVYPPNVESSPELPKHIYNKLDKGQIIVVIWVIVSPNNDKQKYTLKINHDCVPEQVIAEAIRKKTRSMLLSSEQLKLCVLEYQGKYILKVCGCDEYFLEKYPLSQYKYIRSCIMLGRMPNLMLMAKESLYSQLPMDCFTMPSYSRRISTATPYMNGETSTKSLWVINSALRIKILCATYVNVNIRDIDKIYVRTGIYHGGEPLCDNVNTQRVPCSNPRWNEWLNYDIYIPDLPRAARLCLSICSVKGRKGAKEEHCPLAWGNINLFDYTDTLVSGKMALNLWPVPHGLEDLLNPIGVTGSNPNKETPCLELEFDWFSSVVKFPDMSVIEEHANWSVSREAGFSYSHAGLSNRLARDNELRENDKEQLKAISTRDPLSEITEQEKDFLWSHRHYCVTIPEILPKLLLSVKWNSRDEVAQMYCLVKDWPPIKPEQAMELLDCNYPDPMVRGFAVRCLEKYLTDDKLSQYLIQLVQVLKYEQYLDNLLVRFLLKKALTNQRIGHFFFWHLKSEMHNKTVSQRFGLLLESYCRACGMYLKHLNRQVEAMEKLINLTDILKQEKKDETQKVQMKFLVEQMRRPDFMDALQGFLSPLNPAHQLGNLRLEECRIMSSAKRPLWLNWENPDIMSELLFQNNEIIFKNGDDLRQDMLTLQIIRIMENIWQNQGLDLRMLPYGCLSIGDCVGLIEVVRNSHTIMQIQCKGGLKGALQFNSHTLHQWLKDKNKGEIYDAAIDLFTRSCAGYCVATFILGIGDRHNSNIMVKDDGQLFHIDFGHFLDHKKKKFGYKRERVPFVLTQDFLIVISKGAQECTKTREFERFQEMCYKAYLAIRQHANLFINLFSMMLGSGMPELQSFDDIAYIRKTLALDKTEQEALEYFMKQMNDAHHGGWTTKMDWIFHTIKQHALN

Compound | IC50 [nM]
Nc1ncc(-c2cnc3sc(N4CCNCC4)nn23)cc1C(F)(F)F | 1300
NCCNc1nn2c(-c3cnc(N)c(C(F)(F)F)c3)cnc2s1 | 50 to 1000
CC(C)(C)OC(=O)N1CCC(Nc2nn3c(-c4cnc(N)c(C(F)(F)F)c4)cnc3s2)CC1 | 50 to 1000
Nc1ncc(-c2cnc3sc(N4CCC(N)CC4)nn23)cc1C(F)(F)F | 50 to 1000
CN[C@H]1CC[C@H](N(C)c2nn3c(-c4cnc(N)c(C(F)(F)F)c4)cnc3s2)CC1 | 50 to 1000
Nc1ncc(-c2cnc3sc(N4CC5(CCNCC5)C4)nn23)cc1C(F)(F)F | 50 to 1000
Nc1ncc(-c2cnc3sc(NCC4CCNCC4)nn23)cc1C(F)(F)F | 50 to 1000
Nc1ncc(-c2cnc3sc(N4CCC(O)CC4)nn23)cc1C(F)(F)F | 50 to 1000
Nc1ncc(-c2c(Cl)nc3sc(N[C@H]4CC[C@@H](N)CC4)nn23)cc1C(F)(F)F | 50 to 1000
CS(=O)(=O)NCC1CCN(c2nn3c(-c4cnc(N)c(C(F)(F)F)c4)cnc3s2)CC1 | 50 to 1000
NCC1CCN(c2nn3c(-c4cnc(N)c(C(F)(F)F)c4)cnc3s2)CC1 | 50 to 1000

Further lines, results first:

IC50 [nM] | Compound
269 | CS(=O)(=O)NCCNc1nn2c(-c3cnc(N)c(C(F)(F)F)c3)cnc2s1
483 | CCNC(=O)NC1CCCN(c2nn3c(-c4cnc(N)c(C(F)(F)F)c4)cnc3s2)C1 (centres undefined)
50 to 1000 | CS(=O)(=O)N1CCC(Nc2nn3c(-c4cncc(C(F)(F)F)c4)cnc3s2)CC1
82 | CN(c1nn2c(-c3cnc(N)c(C(F)(F)F)c3)cnc2s1)C1CCC(=NO)CC1 (centres undefined)
1 to 50 | NCC(=O)O[C@H]1CC[C@H](Nc2nn3c(-c4cnc(N)c(C(F)(F)F)c4)cnc3s2)CC1
141 | Nc1ncc(-c2cnc3sc(N4CCC5(CCNCC5)CC4)nn23)cc1C(F)(F)F
291 | CC(C)S(=O)(=O)N1CCC(Nc2nn3c(-c4cnc(N)c(C(F)(F)F)c4)cnc3s2)CC1
5 | CCNC(=O)N[C@H]1CC[C@H](Nc2nn3c(-c4cnc(N)c(C(F)(F)F)c4)cnc3s2)CC1
